# Assay results published in patent US20080261898A1, “COMPOSITION AND METHOD FOR CANCER TREATMENT AND PREVENTION” (priority 2007, published 2008).
# Assays:
# CDK2 [1] = experiment: CDK2 expression in xenograft tumor samples, immunoblotting; assay type: in vivo, mouse; details: Treatments 2, 3 and 4
# Protocol: (§1) 8-12 week old athymic nude mice (Jackson Laboratories, Bar Harbor, Me., US) were randomly assigned to Control (n=10) and Treatment (n=10) groups. Tumor xenografts were generated by injecting DU-145 cells (4×10^6) subcutaneously into the mice (Day 1). 1 mg/kg body weight of AC620 or PBS (Control) was administrated to the mice by subcutaneous injection starting at the time of tumor implantation (Day 1) and the mice were treated twice a week. Tumors were measured periodically. At Day 30, the mice were sacrificed. Half of each tumor was processed for immunohistochemical analysis and the other half was frozen for subsequent protein and RNA analysis.
# Xenograft mouse model was generated and AC620 or PBS (Control) was administrated to the transplanted mice for 30 days as described above. After the mice were sacrificed, immunoblotting analysis of the tumor samples was performed using CDK1 and CDK2 antibodies as described above.
# LNCaP cells [2] = experiment: Apoptosis, Annexin V flow cytometry, LNCaP cells; assay type: cell-based, human; details: 72 hr
# Protocol: (§2) AC620 was incubated with DU-145 cells and LNCaP cells at various concentrations (0, 0.1, 0.5, 1, 5 μM) for 72 hr. The effect of AC620 on apoptosis of DU-145 cells and LNCaP cells was assessed. The cells were washed in 1×PBS and resuspended in binding buffer (0.01M Hepes pH 7.4, 0.14M NaCl, 2.5 mM CaCl2), stained with Annexin V conjugated with APC (Pharmingen) and then subjected to flow cytometry analysis using FACS Caliber (BD Biosciences, San Jose, Calif.).
# DU-145 cells [3] = experiment: BrdU based cell proliferation assay, DU-145 cells; design: species or system human
# Protocol: (§3) AC620 was incubated with hormone-refractory prostate cancer cell line DU-145 cells and hormone-responsive prostate cancer cell line LNCaP cells at various concentrations (0, 0.1, 0.5, 1, 5 μM) for 72 hr. LNCaP cells were maintained in RPMI 1640 medium (PAA Laboratories, Pashing, Austria) supplemented with 10% fetal calf serum (FCS) (Sigma, St. Louis, Mo.). The effect of AC620 on proliferation of DU-145 cells and LNCaP cells was determined by using a non-radioactive BrdU based cell proliferation assay kit (Roche, Switzerland) according to manufacturer's protocol. BrdU incorporation into the cellular DNA was determined by measuring the absorbance at 450 nm and 690 nm on an ELISA plate reader.
# as §3, with “0 (Control) and” for “various concentrations (0, 0.1, 0.5, 1,”, “μM” for “μM)”, “for 24, 48 and” for “for”, “hr.” for “hr. LNCaP cells were maintained in RPMI 1640 medium (PAA Laboratories, Pashing, Austria) supplemented with 10% fetal calf serum (FCS) (Sigma, St. Louis, Mo.).”
# Bcl-2 = Bcl-2 expression in xenograft tumor samples, immunoblotting; assay type: in vivo, mouse
# Protocol: as §1
# Xenograft mouse model was generated and AC620 or PBS (Control) was administrated to the transplanted mice for 30 days as described above. After the mice were sacrificed, immunoblotting analysis of the tumor samples was performed using Bcl-2 and p21 antibodies as described above.
# HT-29 cells = experiment: Apoptosis, Annexin V, HT-29 cells; assay type: cell-based; details: 72 hr
# Protocol: as §2
# AC620 was incubated with metastatic colorectal cancer cell line HT-29 cells at various concentrations (0, 0.1, 0.5, 1, 4 μM) for 72 hr. The effect of AC620 on apoptosis of HT-29 cells was assessed by Annexin V stating as described above.
# CDK2 [4] = experiment: CDK2 expression in DU-145 cells, immunoblotting; assay type: cell-based, human; details: 72 hr
# Protocol: After 72 hr treatment, cell lysates were collected and immunoblotting was performed. The membranes were probed with primary antibodies against CDK2 (Transduction Laboratory, San Jose, Calif.) and actin (Santa Cruz Biotechnology, Santa Cruz, Calif.) followed by horseradish peroxidase (HRP)-conjugated secondary antibodies and visualized using the Enhanced Chemi-Luminescence detection system (ECL) and ECL films.
# VEGF = VEGF expression in DU-145 cells, immunoblotting; assay type: cell-based, human
# Protocol: AC620 was dissolved in ethanol and then added to cultured DU-145 cells, a hormone-refractory, metastatic prostate cancer cell line. The concentrations tested were 0, 0.1, 0.5, 1 and 4 μM, and the cells were grown for 72 hr. Cells treated with ethanol for the same time period were used as Control. DU-145 cells were maintained in RPMI 1640 medium (PAA Laboratories, Pashing, Austria) supplemented with 10% fetal calf serum (FCS) (Sigma, St. Louis, Mo.). After 72 hr treatment, cell Tysates were collected and immunoblotting was performed. The membranes were probed with primary antibodies against VEGF and actin (Santa Cruz Biotechnology, Santa Cruz, Calif.) followed by horseradish peroxidase (HRP)-conjugated secondary antibodies (Amersham Life Science, Alesbury, U.K.) and visualized using the Enhanced Chemi-Luminescence detection system (ECL) and ECL films (Amersham Pharmacia Biotech).
# LNCaP cells [5] = experiment: Viable cells, Annexin-V staining and flow cytometry, LNCaP cells; assay type: cell-based, human; details: 72 hr
# Protocol: (§4) AC620 was incubated with DU-145 cells, LNCaP cells and primary human prostate endothelial cells at high concentrations (0, 5, 100, 500, 1000 μM) for 72 hr. The number of viable cells was measured by Annexin-V staining followed by flow cytometry analysis.
# DU-145 cells [6] = experiment: Viable cells, Annexin-V staining and flow cytometry, DU-145 cells; assay type: cell-based, human; details: 72 hr
# Protocol: as §4
# [7] = tested on: primary human prostate endothelial cells; experiment: Viable cells, Annexin-V staining and flow cytometry, primary human prostate endothelial cells; assay type: cell-based; details: up to the highest concentration, 1000 μM, 72 hr
# Protocol: as §4
smiles,measurement,setting,value
CC1OC(OCC2OC(Oc3c(-c4ccc(O)c(O)c4)oc4cc(O)c(O)cc4c3=O)C(O)C(O)C2O)C(O)C(O)C1O (stereo not shown) [AC620],reduction of CDK2 expression in tumor samples,CDK2 [1],> 95%
same,"apoptosis increased, LNCaP cells",LNCaP cells [2]; 0.1 μm,46%
same,"apoptosis increased, LNCaP cells",LNCaP cells [2]; 0.5 μm,81%
same,"apoptosis increased, LNCaP cells",LNCaP cells [2]; 1 μm,154%
same,"apoptosis increased, LNCaP cells",LNCaP cells [2]; 5 μm,177%
same,decrease in cell proliferation of DU-145 cells,"DU-145 cells [3]; 5 μM, after 24 hr",6%
same,decrease in cell proliferation of DU-145 cells,"DU-145 cells [3]; 5 μM, after 48 hrs",31%
same,decrease in cell proliferation of DU-145 cells,"DU-145 cells [3]; 5 μM, after 72 hr (time study)",86%
same,decrease in cell proliferation of DU-145 cells,"DU-145 cells [3]; 0.1 μm, 72 hr",37%
same,decrease in cell proliferation of DU-145 cells,"DU-145 cells [3]; 0.5 μm, 72 hr",58%
same,decrease in cell proliferation of DU-145 cells,"DU-145 cells [3]; 1 μm, 72 hr",72%
same,decrease in cell proliferation of DU-145 cells,"DU-145 cells [3]; 5 μm, 72 hr (dose study)",84%
same,estimated decrease of Bcl-2 expression in tumor samples,Bcl-2; Treatment 1,~80%
same,estimated decrease of Bcl-2 expression in tumor samples,Bcl-2; Treatment 2,> 95%
same,estimated decrease of Bcl-2 expression in tumor samples,Bcl-2; Treatment 3,~90%
same,estimated decrease of Bcl-2 expression in tumor samples,Bcl-2; Treatment 4,> 95%
same,"apoptosis increased, HT-29 cells",HT-29 cells; 0.1 μm,10%
same,"apoptosis increased, HT-29 cells",HT-29 cells; 0.5 μm,87%
same,"apoptosis increased, HT-29 cells",HT-29 cells; 1 μm,220%
same,"apoptosis increased, HT-29 cells",HT-29 cells; 5 μm,267%
same,estimated decrease of CDK2 expression,CDK2 [4]; 0.1 μm,~0%
same,estimated decrease of CDK2 expression,CDK2 [4]; 0.5 μm,~10%
same,estimated decrease of CDK2 expression,CDK2 [4]; 1 μm,~20%
same,estimated decrease of CDK2 expression,CDK2 [4]; 4 μm,~60%
same,reduced VEGF expression,"VEGF; 0.1 μm AC620, 72 hr",approximately 40%
same,reduced VEGF expression,"VEGF; 0.5 μm AC620, 72 hr",approximately 60%
same,reduced VEGF expression,"VEGF; 1 μm AC620, 72 hr",approximately 80%
same,reduced VEGF expression,"VEGF; 4 μm AC620, 72 hr",over 95%
same,viable LNCaP cells decreased,LNCaP cells [5]; 5 μm,42%
same,viable LNCaP cells decreased,LNCaP cells [5]; 100 μm,67%
same,viable LNCaP cells decreased,LNCaP cells [5]; 500 μm,92%
same,viable LNCaP cells decreased,LNCaP cells [5]; 1000 μm,96%
same,viable DU-145 cells decreased,DU-145 cells [6]; 5 μm,67%
same,viable DU-145 cells decreased,DU-145 cells [6]; 100 μm,93%
same,viable DU-145 cells decreased,DU-145 cells [6]; 500 μm,94%
same,viable DU-145 cells decreased,DU-145 cells [6]; 1000 μm,97%
same,viability of primary human prostate endothelial cells,[7],remained viable
